# Measurements from patent publication US10059694B2, “2-aminopyrimidine compound and pharmaceutical composition and use thereof” (Shanghai Institute of Materia Medica, Chinese Academy of …, priority 2014, dated 2018).
# Assays:
# IGF-1R = target: T1, IGF-1R (Homo sapiens, UniProt P08069); assay: kinase inhibitory activity test (ELISA), IGF-1R; type: biochemical; details: ATP 5 μM, 1 hour at 37° C.
# T1 construct: purchased Millipore
# Procedure: (§1) The enzyme substrate poly (glutamic acid, tyrosine)4:1 (Sigma) was diluted with potassium-free PBS (10 mM sodium phosphate buffer, 150 mM NaCl, pH 7.2-7.4) to 20 μg/mL, plate coated with 125 μL/well, reacted for 12-16 hours at 37° C. After the liquid in the wells was discarded, the plates were washed three times with 200 μL/well of T-PBS (PBS containing 0.1% Tween-20), and each time for 5 minutes, and then dried for 1-2 hours in an oven at 37° C. 50 μL of ATP solution diluted with reaction buffer (50 mM HEPES pH 7.4, 50 mM MgCl2, 5 mM MnCl2, 0.2 mM Na3VO4, 1 mM DTT) was added into each well and the final concentration was 5 μM. The compounds were diluted with 1% DMSO to suitable concentrations and were added at 10 μL/well. Then different types of tyrosine kinase proteins (including EGFR^wt, EGFR^T790M/L858R and IGF-1R, purchased from Millipore) diluted with 40 μL of reaction buffer were added. The above reaction system was reacted for 1 hour at 37° C. shaking table (100 rpm). Control wells with no enzyme and control wells with DMSO solvent were set in each experiment. After the reaction was completed, the plates were washed three times with T-PBS. The anti-phosphotyrosine primary antibody PY99 (Santa Cruz) was added at 100 μL/well and the antibody was diluted with T-PBS containing BSA 5 mg/mL by 1:1000. The mixture was reacted for 0.5 h at 37° C. shaking table, the plates were washed three times with T-PBS. The secondary antibody which was horseradish peroxidase-labeled goat anti-mouse IgG was added at 100 μL/well (the antibody was diluted with T-PBS containing BSA 5 mg/mL by 1:2000). The mixture was reacted for 0.5 h at 37° C. shaking table, the plates were washed three times with T-PBS. 2 l/mL of OPD coloring solution was added at 100 μL/well (diluted with 0.1 M citric acid-sodium citrate buffer (pH=5.4) containing 0.03% H2O2) and dark reacted for 1 to 10 minutes at 25° C. 2 M H2SO4 was added at 50 μL/well to terminate the reaction. Reading was carried out with an adjustable wavelength microplate enzyme-labeled instrument SPECTRA MAX 190 at 490 nm wavelength.
# (§2) The IC50 value was calculated by the four-parameter fitting of the suppression curve.
# [1] = test system: human epidermal carcinoma A431 cell line; assay: SRB proliferation assay, A431 cells; type: cell-based; details: A-431, SRB, 72 h, read-out: IC50 A431
# Procedure: (§3) Cell lines: human epidermal carcinoma A431 cell line and human non-small cell lung cancer NCI-H1975 cell line was purchased from the American Standard Biology Collection Center (ATCC).
# (§4) Methods: sulforhodamine B (SRB) method, which was as follows: certain number of different tumor cells in logarithmic growth phase were inoculated on 96-well culture plates. After cultured for 24 h to cell adherence, different concentrations of the test compounds of the invention were added. Each concentration was provided with three wells, and a corresponding concentration of DMSO solvent control and a cell-free zeroing well were set. After the cells were treated with the medicine for 72 h, the culture medium was discarded and 100 μL of 10% pre-cooled trichloroacetic acid solution was added to fix the cells. After placed for 1 h at 4° C., it was washed for 5 times with distilled water and dried naturally. Then 100 μL SRB (4 mg/mL) (Sigma) solution was added and stained for 15 min at room temperature. The staining solution was discarded and washed for 5 times with 1% glacial acetic acid and dried. Finally, 150 μL of 10 mM Tris solution (pH 10.5) was added and the OD value was measured at 515 nm with adjustable wavelength microplate enzyme-labeled instrument (VERSAmax™, Molecular Device Corporation, Sunnyvale, Calif., USA).
# EGFR^wt = target: T2, EGFR^wt (Homo sapiens, UniProt P00533); assay: kinase inhibitory activity test (ELISA), EGFR^WT; type: biochemical; details: ATP 5 μM, 1 hour at 37° C.
# T2 construct: purchased Millipore
# Procedure: as §1, with “Then different types of tyrosine kinase proteins (including EGFR^wt, EGFR^T790M/L858R and IGF-1R, purchased from Millipore) diluted with 40 μL of reaction buffer were added.” left out
# as §2
# [2] = test system: human non-small cell lung cancer NCI-H1975 cell line; assay: SRB proliferation assay, NCI-H1975 cells; type: cell-based; details: NCI-H1975, SRB, 72 h, read-out: IC50 NCI-H1975
# Procedure: as §3
# as §4, with “USA). […] Based on the inhibitory effect of the 2-aminopyrimidine compounds on the growth of these cells, the half maximal inhibitory concentration (IC50) values were calculated, as shown in Table 2.” for “USA).”
# EGFR^T790M/L858R = target: T3, EGFR^T790M/L858R (Homo sapiens, UniProt P00533, L858R/T790M); assay: kinase inhibitory activity test (ELISA), EGFR^T790M/L858R; type: biochemical; details: ELISA, ATP 5 μM, 1 hour at 37° C.
# T3 construct: purchased Millipore
# Procedure: as §1, with “Then different types of tyrosine kinase proteins (including EGFR^wt, EGFR^T790M/L858R and IGF-1R, purchased from Millipore) diluted with 40 μL of reaction buffer were added.” left out
# as §2
# T3 sequence (P00533 25-1210 T790M/L858R): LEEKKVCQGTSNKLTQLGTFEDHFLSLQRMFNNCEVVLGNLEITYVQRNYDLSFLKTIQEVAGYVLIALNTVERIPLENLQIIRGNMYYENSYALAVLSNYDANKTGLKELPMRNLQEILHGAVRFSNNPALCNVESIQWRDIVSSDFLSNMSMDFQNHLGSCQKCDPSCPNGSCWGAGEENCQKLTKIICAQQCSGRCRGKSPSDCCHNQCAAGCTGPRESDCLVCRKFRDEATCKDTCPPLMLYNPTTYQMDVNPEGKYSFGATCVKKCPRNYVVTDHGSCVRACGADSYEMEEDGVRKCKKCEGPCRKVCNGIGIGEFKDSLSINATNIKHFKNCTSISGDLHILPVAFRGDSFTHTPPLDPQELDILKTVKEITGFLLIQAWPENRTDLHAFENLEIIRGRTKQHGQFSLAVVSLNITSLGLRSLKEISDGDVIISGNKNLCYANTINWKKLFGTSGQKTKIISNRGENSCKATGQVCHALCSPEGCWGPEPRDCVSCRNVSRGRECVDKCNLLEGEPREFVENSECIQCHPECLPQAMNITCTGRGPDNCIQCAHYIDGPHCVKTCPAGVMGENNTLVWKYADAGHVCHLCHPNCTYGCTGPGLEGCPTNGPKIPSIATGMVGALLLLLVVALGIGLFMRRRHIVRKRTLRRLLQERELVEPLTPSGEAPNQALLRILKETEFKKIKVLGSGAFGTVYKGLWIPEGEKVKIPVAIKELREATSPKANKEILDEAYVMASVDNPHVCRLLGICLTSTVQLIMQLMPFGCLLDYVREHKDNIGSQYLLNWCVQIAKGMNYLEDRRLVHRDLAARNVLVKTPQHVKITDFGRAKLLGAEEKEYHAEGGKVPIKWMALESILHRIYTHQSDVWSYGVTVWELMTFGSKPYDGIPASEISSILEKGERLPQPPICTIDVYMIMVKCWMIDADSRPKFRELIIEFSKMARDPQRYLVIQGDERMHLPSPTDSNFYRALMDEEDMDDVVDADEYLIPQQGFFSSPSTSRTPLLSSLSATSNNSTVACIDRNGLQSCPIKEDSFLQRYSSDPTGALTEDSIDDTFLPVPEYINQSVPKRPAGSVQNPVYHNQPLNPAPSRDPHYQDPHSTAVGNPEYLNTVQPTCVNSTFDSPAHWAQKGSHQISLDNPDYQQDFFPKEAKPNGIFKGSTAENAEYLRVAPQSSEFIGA
# T2 sequence (P00533 25-1210): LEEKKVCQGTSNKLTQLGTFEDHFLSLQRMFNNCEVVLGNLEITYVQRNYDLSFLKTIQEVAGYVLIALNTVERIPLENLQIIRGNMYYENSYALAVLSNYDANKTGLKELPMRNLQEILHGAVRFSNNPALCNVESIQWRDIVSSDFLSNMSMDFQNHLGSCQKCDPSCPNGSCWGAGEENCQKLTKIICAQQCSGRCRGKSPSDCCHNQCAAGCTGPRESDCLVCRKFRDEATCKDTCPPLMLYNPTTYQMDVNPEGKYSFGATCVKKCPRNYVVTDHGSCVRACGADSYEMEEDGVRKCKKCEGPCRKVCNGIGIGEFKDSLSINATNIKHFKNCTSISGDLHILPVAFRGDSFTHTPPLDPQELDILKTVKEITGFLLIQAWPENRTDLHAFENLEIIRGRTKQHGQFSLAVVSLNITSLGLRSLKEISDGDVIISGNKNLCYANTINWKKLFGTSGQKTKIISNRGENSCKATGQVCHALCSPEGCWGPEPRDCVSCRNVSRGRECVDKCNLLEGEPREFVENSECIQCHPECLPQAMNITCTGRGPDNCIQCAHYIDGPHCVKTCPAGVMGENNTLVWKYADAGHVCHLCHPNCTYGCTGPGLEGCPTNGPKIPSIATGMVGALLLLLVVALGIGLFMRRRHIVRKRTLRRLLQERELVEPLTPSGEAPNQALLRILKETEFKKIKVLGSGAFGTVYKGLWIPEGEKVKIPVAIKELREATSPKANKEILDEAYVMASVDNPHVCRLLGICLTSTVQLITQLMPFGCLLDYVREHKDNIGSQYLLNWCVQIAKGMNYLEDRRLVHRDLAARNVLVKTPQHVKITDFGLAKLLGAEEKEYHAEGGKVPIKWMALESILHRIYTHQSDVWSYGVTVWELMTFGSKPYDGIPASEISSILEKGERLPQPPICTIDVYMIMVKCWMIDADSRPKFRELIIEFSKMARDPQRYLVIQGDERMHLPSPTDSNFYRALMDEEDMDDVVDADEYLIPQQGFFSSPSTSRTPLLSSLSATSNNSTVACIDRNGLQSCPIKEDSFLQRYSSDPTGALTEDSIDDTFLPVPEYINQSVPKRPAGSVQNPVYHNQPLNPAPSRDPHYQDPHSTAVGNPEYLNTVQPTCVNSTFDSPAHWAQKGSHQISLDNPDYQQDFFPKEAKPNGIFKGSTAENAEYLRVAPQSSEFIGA
# T1 sequence (P08069 31-1367): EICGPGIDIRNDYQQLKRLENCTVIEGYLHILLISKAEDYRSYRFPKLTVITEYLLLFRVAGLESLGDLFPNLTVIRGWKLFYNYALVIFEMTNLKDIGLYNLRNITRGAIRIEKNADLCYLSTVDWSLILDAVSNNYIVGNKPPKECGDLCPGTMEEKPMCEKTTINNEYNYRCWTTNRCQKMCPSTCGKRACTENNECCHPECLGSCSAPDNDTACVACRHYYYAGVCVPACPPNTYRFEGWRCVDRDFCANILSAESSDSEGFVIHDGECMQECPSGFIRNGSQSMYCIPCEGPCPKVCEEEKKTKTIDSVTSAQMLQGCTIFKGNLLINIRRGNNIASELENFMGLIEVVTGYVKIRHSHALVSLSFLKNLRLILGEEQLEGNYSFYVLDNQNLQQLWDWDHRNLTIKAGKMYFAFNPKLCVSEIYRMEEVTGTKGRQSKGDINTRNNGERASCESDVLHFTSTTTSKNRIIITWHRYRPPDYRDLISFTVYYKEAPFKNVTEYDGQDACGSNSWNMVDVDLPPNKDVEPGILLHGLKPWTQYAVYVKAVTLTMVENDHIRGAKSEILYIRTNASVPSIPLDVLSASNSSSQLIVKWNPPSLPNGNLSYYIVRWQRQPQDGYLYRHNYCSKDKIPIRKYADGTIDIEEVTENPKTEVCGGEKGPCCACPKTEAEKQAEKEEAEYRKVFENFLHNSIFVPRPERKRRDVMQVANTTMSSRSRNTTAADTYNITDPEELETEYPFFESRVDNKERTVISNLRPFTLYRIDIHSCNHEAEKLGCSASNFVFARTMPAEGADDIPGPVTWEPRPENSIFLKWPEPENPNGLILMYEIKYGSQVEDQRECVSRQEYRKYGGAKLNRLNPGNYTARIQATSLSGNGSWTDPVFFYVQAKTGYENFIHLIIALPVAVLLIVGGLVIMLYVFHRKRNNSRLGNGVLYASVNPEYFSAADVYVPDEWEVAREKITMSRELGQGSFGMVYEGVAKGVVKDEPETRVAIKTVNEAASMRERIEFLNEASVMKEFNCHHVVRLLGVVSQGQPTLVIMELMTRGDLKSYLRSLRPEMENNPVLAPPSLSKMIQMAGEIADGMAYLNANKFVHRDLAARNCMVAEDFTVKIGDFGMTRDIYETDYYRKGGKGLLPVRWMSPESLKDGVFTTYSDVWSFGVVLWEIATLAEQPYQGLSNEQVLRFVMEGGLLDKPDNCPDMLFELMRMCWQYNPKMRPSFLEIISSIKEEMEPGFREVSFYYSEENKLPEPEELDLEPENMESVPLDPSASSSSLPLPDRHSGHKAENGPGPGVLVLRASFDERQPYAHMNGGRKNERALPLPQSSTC
SMILES,IC50 (IGF-1R) [nM],IC50 [1] [nM],IC50 (EGFR^wt) [nM],IC50 [2] [nM],IC50 (EGFR^T790M/L858R) [nM]
"COc1ccc(NC(=O)/C=C/CN(C)C)cc1Nc1ncc(OC)c(Nc2ccc3ccccc3c2)n1 [CCB145268, (E)-N-((3-((5-methoxy-4-((naphthalen-2-yl)amino))pyrimidin-2-yl)amino)-4-methoxyphenyl)-4-(dimethylamino)-2-butenamide]",182,1110,225,1160,102
"COc1ccc(NC(=O)/C=C/CN(C)C)cc1Nc1ncc(C(F)(F)F)c(Nc2ccc3ccccc3c2)n1 [CCB145274, (E)-N-((3-((5-trifluoromethyl-4-((naphthalen-2-yl)amino))pyrimidin-2-yl)amino)-4-methoxyphenyl)-4-(dimethylamino)-2-butenamide]",41,1220,2070,682,31.3
"COc1ccc(NC(=O)/C=C/CN(C)C)cc1Nc1ncc(C(C)C)c(Nc2ccc3ccccc3c2)n1 [CCB145283, (E)-N-((3-((5-isopropyl-4-((naphthalen-2-yl)amino))pyrimidin-2-yl)amino)-4-methoxyphenyl)-4-(dimethylamino)-2-butenamide]",85.2,1040,2290,860,151
"COc1ccc(NC(=O)/C=C/CN(C)C)cc1Nc1ncc(Br)c(Nc2ccc3ccccc3c2)n1 [CCB145286, (E)-N-((3-((5-bromo-4-((naphthalen-2-yl)amino))pyrimidin-2-yl)amino)-4-methoxyphenyl)-4-(dimethylamino)-2-butenamide]",20.5,1120,254,416,22.5
"COc1ccc(NC(=O)/C=C/CN(C)C)cc1Nc1ncc(F)c(Nc2ccc3ccccc3c2)n1 [CCB145287, (E)-N-((3-((5-fluoro-4-((naphthalen-2-yl)amino))pyrimidin-2-yl)amino)-4-methoxyphenyl)-4-(dimethylamino)-2-butenamide]",151,611,131,375,32
"COc1ccc(NC(=O)/C=C/CN(C)C)cc1Nc1ncc(C)c(Nc2ccc3ccccc3c2)n1 [CCB145289, (E)-N-((3-((5-methyl-4-((naphthalen-2-yl)amino))pyrimidin-2-yl)amino)-4-methoxyphenyl)-4-(dimethylamino)-2-butenamide]",103,839,232,1000,72.9

# Results, then the compound that gave them:
IC50 (IGF-1R) [nM],IC50 [1] [nM],IC50 (EGFR^wt) [nM],IC50 [2] [nM],IC50 (EGFR^T790M/L858R) [nM],SMILES
347,11100,≥ 10000,2780,159,"COc1ccc(NC(=O)/C=C/CN(C)C)cc1Nc1ncc(Cl)c(Sc2ccc3ccccc3c2)n1 [CCB145291, (E)-N-((3-((5-chloro-4-((naphthalen-2-yl)sulfenyl))pyrimidin-2-yl)amino)-4-methoxyphenyl)-4-(dimethylamino)-2-butenamide]"
193,1300,173,327,22.6,"COc1ccc(NC(=O)/C=C/CN(C)C)cc1Nc1ncc(C#N)c(Nc2ccc3ccccc3c2)n1 [CCB145293, (E)-N-((3-((5-cyano-4-((naphthalen-2-yl)amino))pyrimidin-2-yl)amino)-4-methoxyphenyl)-4-(dimethylamino)-2-butenamide]"
> 1000,1080,93.9,1180,47.2,"COc1ccc(NC(=O)/C=C/CN(C)C)cc1Nc1ncc(Cl)c(N(C)c2ccc3ccccc3c2)n1 [CCB145295, (E)-N-((3-((5-chloro-4-(N-methyl-(naphthalen-2-yl)amino))pyrimidin-2-yl)amino)-4-methoxyphenyl)-4-(dimethylamino)-2-butenamide]"
198,20500,1400,1060,55.7,CN(C)C/C=C/C(=O)Nc1ccc(F)c(Nc2ncc(Cl)c(Nc3ccc4ccccc4c3)n2)c1 [CCB145329]
146,12800,4150,948,32.4,"CN(C)C/C=C/C(=O)Nc1ccc(F)c(Nc2ncc(Br)c(Nc3ccc4ccccc4c3)n2)c1 [CCB145330, (E)-N-((3-((5-bromo-4-((naphthalen-2-yl)amino))pyrimidin-2-yl)amino)-4-fluorophenyl)-4-(dimethylamino)-2-butenamide]"
170,6220,4750,632,24.2,"CN(C)C/C=C/C(=O)Nc1cccc(Nc2ncc(Cl)c(Nc3ccc4ccccc4c3)n2)c1 [CCB145333, (E)-N-((3-((5-chloro-4-((naphthalen-2-yl)amino))pyrimidin-2-yl)amino)phenyl)-4-(dimethylamino)-2-butenamide]"
90.6,2590,3890,2480,35.7,"CN(C)C/C=C/C(=O)Nc1cccc(Nc2ncc(Br)c(Nc3ccc4ccccc4c3)n2)c1 [CCB145335, (E)-N-((3-((5-bromo-4-((naphthalen-2-yl)amino))pyrimidin-2-yl)amino)phenyl)-4-(dimethylamino)-2-butenamide]"
